Columns and labels:
[1] = tested on: K/B×N serum transfer-induced arthritis; experiment: Resolved inflammation model (30 days): tissues weight, inflammation, body weight; type: in vivo, C57BL/6J mice; details: for BAT, Absolute weight / Bodyweight, Absolute weight / EDL, Absolute weight / Gastronemius, Absolute weight / Tibialis, Absolute weight / WAT, Absolute weight: resolved model
Procedure: Animals were sacrificed 30 days after serum transfer.
(§1) Mice were weighted weekly. Development of arthritis was assessed daily, and the severity of arthritis was assessed in each paw on a 4-point scale defined as follows: 0=normal appearance, 1=localized edema/erythema over one surface of the paw, 2=edema/erythema involving more than one surface of the paw, and 3-4=marked edema/erythema involving the whole paw. Scores of all 4 paws were added for a composite score. All motor activity tests were performed prior to serum inoculation and at the highest point of inflammation. Mice were euthanized on day 16 for acute inflammation model or 30 days for Inflammation resolved model. A representative photo of body structure and muscle of pawn were taken on this day. Gastronemius was collected for protein and RNA extraction. Tibialis and soleus were included for freeze histology following the indications of H. Meng (see references in ref. 44). Bones were prepared for micro-computed tomography (microCT) and histology. Blood was drawn and serum was isolated for measurement of inflammatory cytokines and C-reactive protein (CPR).
Body weight and muscle loss continue happening until day 30 when inflammation is resolved (FIG. 15), and dipy treatment continues reverting inflammation effects (FIG. 15A).

[2] = tested on: K/B×N serum transfer-induced arthritis; experiment: Tissues weight at collection, acute model of inflammation; type: in vivo, C57BL/6J mice
Procedure: Data collected for absolute weight are correlated with mouse weight to obtain relative weight (*indicates differences with the sham group and $ indicates differences with the arthritic group). WAT, white adipose tissue; BAT, brown adipose tissue. Values are presented as mean±SEM. […]
as §1

[3] = tested on: K/B×N serum transfer-induced arthritis; experiment: Histological analysis of tibialis anterior (H&E, ATPase, picrosirius red, oil red O)
Procedure: Analysis of tibialis tissue structure by Hematoxylin and eosin (H&E) staining was performed. Frozen samples were sectioned at 10 μm. For staining and subsequent processing by image segmentation we followed the indications established by Liu et al (53). Briefly, sections were brought from −80° C. to room temperature and immediately immersed in methanol for 30 min to improve fixation and stained with Hematoxylin and eosin. Image analysis was performed with ImagePro 2.2 using the Muscle Morphometry plugin following Liu's protocol.
H&E staining was performed on frozen tibialis anterior (TA). Frozen samples were section at 10 μm. For staining and subsequent processing by image segmentation we followed the indications established by Liu et al (53). Briefly, sections were brought from −80° C. to room temperature and immediately immersed in methanol for 30 min to improve fixation and stained with hematoxylin and eosin. Image analysis of cross-sectional area (CSA) was performed with ImagePro 2.2 using the Muscle Morphometry plugin following Liu's protocol.
ATPase staining was performed in TA 10 μM cross-sections as previously described (2). Briefly, cross-sections were incubated 45 min in 0.1 M glycine/NaCl buffer pH 9.4 with 0.75 M CaCl2 and 5 mg ATP (Sigma-Aldrich). After rinsed in distilled water, sections were incubated in 2% cobalt chloride, and then immersed in dilute (1/10) ammonium chloride to develop type 1 (white) and type 2 (black) fibers. After dehydration, sections were mounted with DPX mounting medium (VWR International Ltd., Lutterworth, UK). The quantification of the fiber types was performed using the Image J software package 1.49v (NIH, Bethesda, MD, USA).
Picrosirius Red staining was performed in TA to visualized tissue fibrosis. Slides were air-drayed for 30 min at room temperature and fixed in PFA 4% 30 min. Next, the sections were incubated for 90 min in picrosirius red solution (Polysciences) and immersed immediately in 0.1M HCl solution (Polysciences) for 1 min. The sections were washed 2 times in H2O, dehydrated in serial dilutions of alcohol and mounted with DPX. Bright field and polarized light images were taken. The quantification of infiltration of collagen I were performed using the Image J software package 1.49v (NIH, Bethesda, MD, USA) on polarized images.
To visualize triglycerides infiltration in the muscle, serial frozen TA 10 μm cross-sections were thaw and air dry and fixed in PFA 4% for 1 h before oil red O staining. […] Then we isolate the oil red staining retained in muscle with 200 μL of isopropanol in agitation to quantify the fat infiltrated in every muscle. The oil red released was read from 75 μL samples in a 96-well plate by Tecan Spark 20M in duplicate at 500 nm.

[4] = tested on: K/B×N serum transfer-induced arthritis; experiment: Motor activity tests in K/B×N serum transfer arthritis; type: in vivo, C57BL/6 mice
Procedure: Physical activity tests were performed to assess the motor development of the mice during the arthritic process as follows:
(§2) Ambulation in 12-week-old male C57BL/6 mice was recorded following the protocol described by Gibbs and Crosbie-Watson (2). Mice were placed in individual recording chambers and were allowed to freely move for 6 min. Distance traveled by each animal was determined using object tracking in Kinovea open-source video analysis software (V 0.9.5).
(§3) The coordinated motor function of the four limbs was evaluated with the rotarod test (Rotarod, Harvard Apparatus, USA) with male C57BL/6 mice at the age of 12-week-old. Burgos et al. protocol was followed with modifications (76). Mice were first familiarized with the rotarod by letting them stay for 120s on the rod rotating at 4 and 6 rotations per minute (rpm). Motor activity was assessed by training the mice with an accelerated rotarod protocol of three trials, during which the rod accelerated from 4 rpm to 40 rpm within 5 min.
as §2, with “(see references in ref. 44).” for “(2).”
The Grip Strength Meter (Ugo Basile, #47200) was utilized to assess the grip strength peak of the forelimbs. The mouse held onto a bar, and the highest force exerted during the pull was measured in grams using a digital force transducer. In the test, the mouse gripped a bar attached to the force gauge. Next, an investigator pulled the mouse's tail backward. The gauge recorded tension at the moment the mouse released its forepaws from the bar.
as §3, with “(see references in ref. 44).” for “(76).”

C2C12 = experiment: Western blot of myogenesis markers during differentiation; type: cell-based; details: 1 μM
Procedure: Cells were lysed with RIPA buffer and protein concentration was determined by BCA. […] Variations in intensity were expressed as % of basal (day 0) and expressed as mean±SEM. All results were calculated as a percentage of non-differentiated controls to minimize the intrinsic variation among different experiments.

C2C12 myoblast cell line = experiment: Western blot of C2C12 under pro-inflammatory conditions with/without dipyridamole
Procedure: Western blot was performed as described above.
Protein concentration was determined by BCA. 4 μg for cells and 40-50 μg for tissue samples of protein was subjected to 6-15% SDS-PAGE and transferred to a nitrocellulose membrane. Membranes were blocked with 3% BSA in Tris-buffered saline containing 0.1% Tween-20 (TBS-T). After that, the membranes were incubated overnight at 4° C. with the primary antibodies for A2A, A2B, MHC (Thermo Fisher Scientific, Waltham, USA), AMPK, pAMPK (Thr172), p21, p16 (Cell signaling, Danvers, EEUU) (1:1000 each) and Pax-7 (Developmental Studies Hybridoma Bank, Houston, EEUU) (1:500 each).

[5] = RA mice, dipy started 7 days after serum transfer

OCCN(CCO)c1nc(N2CCCCC2)c2nc(N(CCO)CCO)nc(N3CCCCC3)c2n1 [dipyridamole, 2,6-bis(Diethanolamino)-4,8-dipiperidinopyrimido[5,4-d]pyrimidine]
Body weight [1, 5]: body weight gain starting one week after first dipy dose | Joint inflammation [1, 5]: complete reversion of inflammation | BAT, Absolute weight ([1]; Dipy alone): 0.15 ± 0.01 g | Bodyweight, Absolute weight ([1]; Dipy alone): 27 ± 0.5 g | EDL, Absolute weight ([1]; Dipy alone): 0.03 ± 0.01 g | Gastronemius, Absolute weight ([1]; Dipy alone): 0.39 ± 0.03 g | Tibialis, Absolute weight ([1]; Dipy alone): 0.16 ± 0.02 g | WAT, Absolute weight ([1]; Dipy alone): 0.14 ± 0.06 g | BAT, Absolute weight ([1]; RA + Dipy D 0): 0.17 ± 0.01 g | EDL, Absolute weight ([1]; RA + Dipy D 0): 0.03 ± 0.01 g | Gastronemius, Absolute weight ([1]; RA + Dipy D 0): 0.37 ± 0.02 g | Tibialis, Absolute weight ([1]; RA + Dipy D 0): 0.11 ± 0.01 g | WAT, Absolute weight ([1]; RA + Dipy D 0): 0.15 ± 0.08 g | Bodyweight, Absolute weight ([1]; RA + Dipy D 0 (preventive)): 26.4 ± 1.31 g | BAT, Absolute weight ([1]; RA + Dipy D 7): 0.15 ± 0.01 g | Gastronemius, Absolute weight ([1]; RA + Dipy D 7): 0.33 ± 0.02 g | Tibialis, Absolute weight ([1]; RA + Dipy D 7): 0.05 ± 0.01 g | WAT, Absolute weight ([1]; RA + Dipy D 7): 0.18 ± 0.12 g | Bodyweight, Absolute weight ([1]; RA + Dipy D 7 (therapeutic)): 27.26 ± 1.20 g | BAT, Absolute weight ([2]; RA + Dipy): 0.157 ± 0.005 g | EDL, Absolute weight ([2]; RA + Dipy): 0.010 ± 0.013 g | Gastronemius, Absolute weight ([2]; RA + Dipy): 0.123 ± 0.004 g | Quadriceps, Absolute weight ([2]; RA + Dipy): 0.15 ± 0.01 g | Soleus, Absolute weight ([2]; RA + Dipy): 0.008 ± 0.001 g | Tibialis, Absolute weight ([2]; RA + Dipy): 0.056 ± 0.004 g | WAT, Absolute weight ([2]; RA + Dipy): 0.198 ± 0.018 g | Bodyweight, Absolute weight ([2]; RA mice + Dipy 25 mg/kg/day): 22.12 ± 0.18 g | BAT, Absolute weight ([2]; healthy mice, Dipy alone): 0.16 ± 0.003 g | EDL, Absolute weight ([2]; healthy mice, Dipy alone): 0.011 ± 0.008 g | Gastronemius, Absolute weight ([2]; healthy mice, Dipy alone): 0.174 ± 0.007 g | Soleus, Absolute weight ([2]; healthy mice, Dipy alone): 0.011 ± 0.002 g | Tibialis, Absolute weight ([2]; healthy mice, Dipy alone): 0.08 ± 0.009 g | WAT, Absolute weight ([2]; healthy mice, Dipy alone): 0.22 ± 0.02 g | Bodyweight, Absolute weight ([2]; healthy mice, Dipy alone 25 mg/kg/day): 24.26 ± 1.72 g | Collagen I fibers (Picrosirius Red) ([3]; RA+Dipy, RA 111.1±1.20%, Sham 100±1.26%): 94.78±0.98% | Fat infiltrate in TA (Oil Red staining) ([3]; RA+Dipy, RA 170.1±6.94%, Sham 100±3.97%): 99.21±7.217% | Tibialis muscle fiber area ([3]; arthritic mice + dipyridamole, acute model, arthritic 508±20, sham 1211±43): 1305±35 μm^2 | Fat infiltration across whole muscle (TA and EDL) ([3]; healthy mice, dipy alone): able to decrease this fat infiltration | Ambulatory activity: distance travelled ([4]; arthritic mice + dipyridamole, 2 weeks, arthritic 830±37, sham 1393±187): 1203±53 cm | Two limb hanging test average score ([4]; arthritic mice + dipyridamole, arthritic 3.6±3.3, sham 12±3): 9.8±2 | Rotarod latency to fall ([4]; arthritic mice + dipyridamole, arthritic 43.3±5.4, sham 75.9±3.3): 73.3±10.9 seg | Motor tests (ambulatory activity, grip strength, two limb hanging, rotarod) ([4]; healthy mice, dipy alone vs sham): behave similar | PAX7 protein expression (% of basal) (C2C12; day 1, control 315±58%): revert the effect to control levels | MyoD protein expression (% of basal) (C2C12; day 2, control 182±8%): 162±29% | Myf5 protein expression (% of basal) (C2C12; first 2 days of differentiation): did not modulate | CREB expression (vs 100% basal) (C2C12 myoblast cell line; 24 h of differentiation): 361.5±68.8% | AMPK activation (C2C12 myoblast cell line; cytokine/LPS ± dipyridamole 1 μM, day 4, control 222.7±23.9%): did not increase AMPK levels | PKAα expression (C2C12 myoblast cell line; day 4, dipyridamole combined with IL-6, IL-6 alone 107±5.8%): 245.3±34.3% | PKAα expression (C2C12 myoblast cell line; day 4, dipyridamole combined with INFγ, INFγ alone 101.7±3.7%): 245.3±34.3% | PKAα expression (C2C12 myoblast cell line; day 4, control 213.9±21.6%): 245.3±34.3% | Myogenesis (PAX7, MHC) (C2C12 myoblast cell line; dipyridamole 1 μM alone): did not modulate myogenesis

Reference: US20260263468A1 (Fundación Instituto de Investigación Sanitaria Fundación …, priority 2023, published 2026)
